Measured values from US20050058745A1, “Use of Labiatae herb preparations for extending the flavor shelf life of malt beverages” (priority 2003, published 2005).

Assays:
[1] = Phenylacetaldehyde in headspace of aged beer; type: physicochemical; conditions: for Phenylacetaldehyde in the headspace of aged beer: 20 ppm (RA + CA: 10 ppm each); for effect on formation of phenylacetaldehyde and 3-methylbutanal: aged beer, 40° C.
Method: The highly hopped beer from example 2 was treated with solutions of carnosic acid in ethanol, rosmarinic acid in ethanol or a mixture of carnosic acid and rosmarinic acid in ethanol as done previously. […] The bottles were fobbed to exclude air and crowned. • 3. “20 ppm CA+air” in which bottles were opened and 20 ppm CA added as above. These bottles received two puffs of air in the remaining headspace from a 25 mL bulb. They were crowned without fobbing • 4. “20 ppm RA” in which bottles were opened and 20 ppm rosmarinic acid added from a 2% solution. The bottles were fobbed and crowned. • 5. “20 ppm RA+air” which was done as in No. 4, with 20 ppm RA added. These bottles received the two puffs of air and were crowned without fobbing. • 6. “10 ppm RA+10 ppm CA” in which bottles were opened and 10 ppm each of carnosic and rosmarinic acids were added from pure solutions (178 μL of 2% solution per 12 oz bottle). Bottles were fobbed and crowned. • 7. “10 ppm RA+10 ppm CA+air” in which 10 ppm each of RA and CA was added. This treatment received two puffs of air and was not fobbed before closing. • 8. “Control+air” in which bottles were opened, given two puffs of air and crowned without fobbing. • 9. “Control” in which bottles were opened, fobbed and crowned. Treatments 2 through 9 were stored in a 40° C. hot room. At various times, bottles were opened and samples analyzed for phenylacetaldehyde and 3-methylbutanal by the method of “[…], et al. The results are shown in Table 19.

[2] = DPPH radical scavenging of highly hopped beer during aging at 40° C.; type: physicochemical; conditions: for effect on DPPH numbers: beers not treated with air; for effect on DPPH number: beers treated with air
Method: The bottle dosing methods used were the same as those described in Example 1. The following samples were made: • 1. 20 ppm Carnosic Acid • 2. 20 ppm Carnosic Acid plus Air • 3. 20 ppm Rosmarinic Acid • 4. 20 ppm Rosmarinic Acid plus Air • 5. 10 ppm Carnosic Acid+10 ppm Rosmarinic Acid • 6. 10 ppm Carnosic Acid+10 ppm Rosmarinic Acid+Air • 7. […] No Additions. Treatments 1 through 8 were put in a temperature regulated room set at 40° C. and maintained at ±1° C. At intervals of Zero time, 3 days, 7 days, 14 days, and 21 days, samples were withdrawn and Redox Potentials were measured by the method outlined in example 4. Color measurements were made using the L, a, b system on a Minolta Spectrophotometer model […], chroma and hue angle color measure units were recorded. DPPH radical scavenging numbers were measured using the following method. A de-ionized-H2O/EtOH buffer solution was prepared by dissolving 250 mg sodium citrate dihydrate and 10 g of absolute ethanol in 250 mL of deionized water. The solution was then titrated with 0.1 N Citric acid (6.404 g/L anhydrous citric acid) a drop at a time to reach a pH of between 4.35 and 4.5. To perform the test, about 0.04 g of DPPH was weighed to the nearest 0.1 mg in a 100 mL volumetric, recording the exact weight of DPPH. The DPPH was dissolved in methanol and methanol was added to bring the volume to the 100 mL mark. The solution was sonicated to facilitate dissolution. The beers to be measured were opened and 12 mL of each was poured into separate 15 mL centrifuge tubes, making sure that the volumes in all tubes were equal. The analyses were done in triplicate for each beer. An extra beer sample served as a spectrophotometer blank. The beer was degassed by centrifuging it for 15 min at 6,000 rpm. Into each of two 25 mL flasks was pipeted 5 mL of the pH 4.5 water-ethanol buffer. The spectrophotometer wavelength was set to 531 nm and a buffered water blank was zeroed. 1.0 mL of DPPH solution was added to the water buffer, which was swirled at the same time a timer was started. Just before 10 minutes had elapsed, the sample was transferred to a cuvette and the absorbance (ABL) was measured. The analysis was duplicated with another buffer. For accuracy it is necessary that great care be taken to add exactly 1 mL reagent. It is also important to swirl (mix) the samples consistently as the assay is sensitive to oxygen and to the amount of reagent used. Degassed beer was used to obtain a baseline at 531 nm. After centrifugation 5 mL of the beer was transferred into the appropriate labeled 25 mL flask. 1.0 mL of DPPH solution was added, the solution was swirled and the timer was started. The Absorbance ([…]) of the beer sample was recorded. This process was repeated for all samples. To eliminate any possible prejudice in order of analysis, samples were analyzed randomly. The following formula was used to calculate the amount of DPPH which reacts with 5 mL of beer: μmol DPPH=((1-[…]/ABL)×(g DPPH/394))×10^6

[3] = 0 days at 40° C., + Air, 20 ppm (RA + CA: 10 ppm each)
[4] = 0 days at 40° C., no air, 20 ppm (CA + RA: 10 ppm each)
[5] = 3 days at 40° C., + Air, 20 ppm (RA + CA: 10 ppm each)
[6] = 3 days at 40° C., no air, 20 ppm (CA + RA: 10 ppm each)
[7] = 7 days at 40° C., + Air, 20 ppm (RA + CA: 10 ppm each)
[8] = 7 days at 40° C., no air, 20 ppm (CA + RA: 10 ppm each)
[9] = 14 days at 40° C., + Air, 20 ppm (RA + CA: 10 ppm each)
[10] = 14 days at 40° C., no air, 20 ppm (CA + RA: 10 ppm each)
[11] = 21 days at 40° C., + Air, 20 ppm (RA + CA: 10 ppm each)
[12] = 21 days at 40° C., no air, 20 ppm (CA + RA: 10 ppm each)

O=C(/C=C/c1ccc(O)c(O)c1)O[C@H](Cc1ccc(O)c(O)c1)C(=O)O [RA, rosmarinic acid]
Phenylacetaldehyde in the headspace of aged beer ([1]; Day 0, 40° C., + air): 50.16 Parts per million
Phenylacetaldehyde in the headspace of aged beer ([1]; Day 0, 40° C., no air): 43.6 Parts per million
Phenylacetaldehyde in the headspace of aged beer ([1]; Day 3, 40° C., + air): 48.83 Parts per million
Phenylacetaldehyde in the headspace of aged beer ([1]; Day 3, 40° C., no air): 45.83 Parts per million
Phenylacetaldehyde in the headspace of aged beer ([1]; Day 7, 40° C., + air): 66.68 Parts per million
Phenylacetaldehyde in the headspace of aged beer ([1]; Day 7, 40° C., no air): 46.01 Parts per million
Phenylacetaldehyde in the headspace of aged beer ([1]; Day 14, 40° C., + air): 55.65 Parts per million
Phenylacetaldehyde in the headspace of aged beer ([1]; Day 14, 40° C., no air): 52.71 Parts per million
Phenylacetaldehyde in the headspace of aged beer ([1]; Day 21, 40° C., + air): 68.89 Parts per million
Phenylacetaldehyde in the headspace of aged beer ([1]; Day 21, 40° C., no air): 52.14 Parts per million
effect on formation of phenylacetaldehyde and 3-methylbutanal [1]: dramatic effect in decreasing the formation of these off-flavor compounds
DPPH Number [2, 3]: 49.9 μmol DPPH
DPPH Number [2, 4]: 51.8 μmol DPPH
DPPH Number [2, 5]: 67.1 μmol DPPH
DPPH Number [2, 6]: 66.3 μmol DPPH
DPPH Number [2, 7]: 57.7 μmol DPPH
DPPH Number [2, 8]: 58.7 μmol DPPH
DPPH Number [2, 9]: 56.3 μmol DPPH
DPPH Number [2, 10]: 63.7 μmol DPPH
DPPH Number [2, 11]: 50.5 μmol DPPH
DPPH Number [2, 12]: 57.5 μmol DPPH
effect on DPPH numbers [2]: Neither CA nor RA has much impact on DPPH numbers
effect on DPPH number [2]: preserves the DPPH number in beers that have been treated with air

CC(C)c1cc2c(c(O)c1O)[C@@]1(C(=O)O)CCCC(C)(C)[C@@H]1CC2 [CA, carnosic acid]
Phenylacetaldehyde in the headspace of aged beer ([1]; Day 0, 40° C., + air): 30.49 Parts per million
Phenylacetaldehyde in the headspace of aged beer ([1]; Day 0, 40° C., no air): 32.76 Parts per million
Phenylacetaldehyde in the headspace of aged beer ([1]; Day 3, 40° C., + air): 42.05 Parts per million
Phenylacetaldehyde in the headspace of aged beer ([1]; Day 3, 40° C., no air): 46.34 Parts per million
Phenylacetaldehyde in the headspace of aged beer ([1]; Day 7, 40° C., + air): 63.82 Parts per million
Phenylacetaldehyde in the headspace of aged beer ([1]; Day 7, 40° C., no air): 57.39 Parts per million
Phenylacetaldehyde in the headspace of aged beer ([1]; Day 14, 40° C., + air): 25.74 Parts per million
Phenylacetaldehyde in the headspace of aged beer ([1]; Day 14, 40° C., no air): 24.75 Parts per million
Phenylacetaldehyde in the headspace of aged beer ([1]; Day 21, 40° C., + air): 88.86 Parts per million
Phenylacetaldehyde in the headspace of aged beer ([1]; Day 21, 40° C., no air): 52.94 Parts per million
effect on formation of phenylacetaldehyde and 3-methylbutanal [1]: dramatic effect in decreasing the formation of these off-flavor compounds
DPPH Number [2, 3]: 53.3 μmol DPPH
DPPH Number [2, 4]: 52.2 μmol DPPH
DPPH Number [2, 5]: 67.2 μmol DPPH
DPPH Number [2, 6]: 69.8 μmol DPPH
DPPH Number [2, 7]: 55.6 μmol DPPH
DPPH Number [2, 8]: 64.7 μmol DPPH
DPPH Number [2, 9]: 61.7 μmol DPPH
DPPH Number [2, 10]: 64.4 μmol DPPH
DPPH Number [2, 11]: 56.5 μmol DPPH
DPPH Number [2, 12]: 60.5 μmol DPPH
effect on DPPH numbers [2]: Neither CA nor RA has much impact on DPPH numbers
effect on DPPH number [2]: preserves the DPPH number in beers that have been treated with air
